Reference: patent publication US20250326708A1, “LONG-ACTING SPLEEN-TARGETING CATIONIC LIPID COMPOUND COMPRISING BENZENE RING STRUCTURE, COMPOSITION COMPRISING SAME, AND USE THEREOF” (Beijing Youcarekechuang Pharmaceutical Technology Co., Ltd., priority 2024, published 2025)
Where “and” joins values, the source holds several entries; their conditions need not be identical. Identical values can stand only once.

Experiments:
293T cells [1] = test: Fluorescence detection of Fluc-mRNA (transfection efficiency) of LNP preparations; format: cell-based; conditions: Fluc-mRNA LNP
In short: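 293T cells seeded at 10,000 per well in 96-well plates overnight, then dosed with LNPs (cationic lipid:DSPC:cholesterol:DMG-PEG2000 49:10:39.5:1.5 molar; total lipid:mRNA 15:1 w/w) carrying 0.3 μg Fluc-mRNA. After 24 h, luciferase kit reagents added and fluorescence intensity per well read by IVIS imaging.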

female BALB/C mice [2] = test: Expression of delivered mRNA in different organs of mice (organ imaging); format: in vivo
Protocol: LNP preparations containing 5 μg of Fluc-mRNA were subcutaneously injected into female BALB/C mice (4 to 6 weeks old, weighing 17 to 19 g). At specified time points after administration (6 h), the mice were intraperitoneally injected with fluorescent imaging substrates and allowed to move freely for 5 minutes. The average radiation intensity (corresponding to fluorescence intensity) of proteins expressed by the mRNA delivered by the LNP preparations in the mice in vivo was then detected using the IVIS Spectrum small-animal in vivo imaging system. After sampling, the mice were killed by cervical dislocation and dissected, and the internal organs: heart, liver, spleen, lung, kidney, and lymph of mice were accurately isolated. The average radiation intensity (corresponding to fluorescence intensity) of proteins expressed by the mRNA delivered by the LNP preparations in various organs of mice was then detected using the IVIS Spectrum small-animal in vivo imaging system.

female BALB/C mice [3] = test: Expression of delivered mRNA in mice in vivo (IVIS in vivo imaging); conditions: for Expression level of mRNA in vivo, times that of YK-904: vs YK-904; for Average radiation intensity, in vivo imaging: 10 μg Fluc-mRNA via tail vein; for Expression level of mRNA in vivo, times that of SM-102: vs SM-102; for Expression level of mRNA in vivo, times that of YK-501: vs YK-501; for Expression level of mRNA in vivo, times that of YK-506: vs YK-506; for Expression level of mRNA in vivo, times that of compound 7: vs compound 7
In short: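 Female BALB/c mice (4–6 weeks, 17–19 g) received LNPs carrying 10 μg Fluc-mRNA via tail vein. At 6 h, 24 h, 48 h and 7 d, imaging substrate was given i.p. and, after 5 min, average radiance was measured by IVIS Spectrum imaging.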

293T cells [4] = test: Cell viability assay (CCK-8) with LNP preparations of Fluc-mRNA; format: cell-based
In short: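 293T cells seeded at 10,000/well and cultured overnight, then given LNPs (cationic lipid:DSPC:cholesterol:DMG-PEG2000 49:10:39.5:1.5) carrying 1.5 μg Fluc-mRNA. After 24 h, viability measured by CCK-8 with 1 h incubation.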

[5] = Particle size and polydispersity index (PDI) of lipid nanoparticles, dynamic light scattering; format: physicochemical; conditions: LNP preparation with the named cationic lipid; 90° scattering angle, 25° C
In short: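 LNPs of cationic lipid:DSPC:cholesterol:DMG-PEG2000 (49:10:39.5:1.5 molar) encapsulating eGFP or Fluc mRNA at 15:1 lipid:mRNA weight ratio, made by ethanol injection into citrate buffer pH 4–5, sonication, and ultrafiltration into PBS. Size and PDI by DLS at 90° and 25° C after dilution in water, three measurements per sample.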

[6] = 6 hours after 5 μg Fluc-mRNA subcutaneously

CCCCCCCCCCCOC(=O)CCCN(CCCCCCC(=O)OCCC(CCCCCC)CCCCCC)CCNC(CO)(CO)CCc1ccc(CCCCCCCC)cc1 [YK-910, 3-hexylnonyl 7-((2-((1-hydroxy-2-(hydroxymethyl)-4-(4-octylphenyl)butan-2-yl)amino)ethyl) (4-oxo-4-(undecyloxy)butyl)amino) heptanoate]
Cellular transfection efficiency, times that of HHMA (293T cells [1]; vs HHMA): 8.53 times
Cellular transfection efficiency, times that of I-1 (293T cells [1]; vs I-1): 42.56 times
Cellular transfection efficiency, times that of Lipofectamine 3000 (293T cells [1]; vs Lipofectamine 3000): 10.24 times
Cellular transfection efficiency, times that of MC3 (293T cells [1]; vs MC3): 90.92 times
Cellular transfection efficiency, times that of SM-102 (293T cells [1]; vs SM-102): 6.04 times
Cellular transfection efficiency, times that of YK-501 (293T cells [1]; vs YK-501): 186.59 times
Cellular transfection efficiency, times that of YK-506 (293T cells [1]; vs YK-506): 13.19 times
Cellular transfection efficiency, times that of YK-903 (293T cells [1]; vs YK-903): 345.06 times
Cellular transfection efficiency, times that of YK-906 (293T cells [1]; vs YK-906): 313 times and 313.25 times
Cellular transfection efficiency, times that of compound 7 (293T cells [1]; vs compound 7): 33.51 times
Average radiation intensity of mouse organs: Heart (female BALB/C mice [2]; [6]): 0
Average radiation intensity of mouse organs: Kidney (female BALB/C mice [2]; [6]): 0
Average radiation intensity of mouse organs: Liver (female BALB/C mice [2]; [6]): 11424
Average radiation intensity of mouse organs: Lung (female BALB/C mice [2]; [6]): 0
Average radiation intensity of mouse organs: Lymph (female BALB/C mice [2]; [6]): 0
Average radiation intensity of mouse organs: Spleen (female BALB/C mice [2]; [6]): 242444
Expression level of mRNA in the spleen, times that of SM-102 (female BALB/C mice [2]; spleen, 6 h, vs SM-102): 9.49 times
Expression level of mRNA in the spleen, times that of YK-501 (female BALB/C mice [2]; spleen, 6 h, vs YK-501): 17.04 times
Expression level of mRNA in the spleen, times that of YK-506 (female BALB/C mice [2]; spleen, 6 h, vs YK-506): 3.40 times
Expression level of mRNA in vivo, times that of YK-904 (female BALB/C mice [3]; 6 h): 12.03 times
Average radiation intensity, in vivo imaging (female BALB/C mice [3]; 6 h): 13425454
Expression level of mRNA in vivo, times that of SM-102 (female BALB/C mice [3]; 24 h): 6.78 times
Expression level of mRNA in vivo, times that of YK-501 (female BALB/C mice [3]; 24 h): 12.21 times
Expression level of mRNA in vivo, times that of YK-506 (female BALB/C mice [3]; 24 h): 8.28 times
Expression level of mRNA in vivo, times that of YK-904 (female BALB/C mice [3]; 24 h): 18.49 times
Expression level of mRNA in vivo, times that of compound 7 (female BALB/C mice [3]; 24 h): 11.50 times
Average radiation intensity, in vivo imaging (female BALB/C mice [3]; 24 h): 2133322
Expression level of mRNA in vivo, times that of YK-904 (female BALB/C mice [3]; 48 h): 23.07 times
Average radiation intensity, in vivo imaging (female BALB/C mice [3]; 48 h): 658643
Expression level of mRNA in vivo, times that of SM-102 (female BALB/C mice [3]; 7 d): 9.24 times
Expression level of mRNA in vivo, times that of YK-501 (female BALB/C mice [3]; 7 d): 15.15 times
Expression level of mRNA in vivo, times that of YK-506 (female BALB/C mice [3]; 7 d): 2.49 times
Expression level of mRNA in vivo, times that of YK-904 (female BALB/C mice [3]; 7 d): 26.32 times
Expression level of mRNA in vivo, times that of compound 7 (female BALB/C mice [3]; 7 d): 10.03 times
Average radiation intensity, in vivo imaging (female BALB/C mice [3]; 7 d): 85363
Cell viability (293T cells [4]; LNP with 1.5 μg Fluc-mRNA, 24 hours, CCK-8): 94%
Cell viability higher than that of HHMA (293T cells [4]; difference vs HHMA): 17%
Cell viability higher than that of I-1 (293T cells [4]; difference vs I-1): 26%
Cell viability higher than that of Lipofectamine 3000 (293T cells [4]; difference vs Lipofectamine 3000): 63%
Cell viability higher than that of MC3 (293T cells [4]; difference vs MC3): 20%
Cell viability higher than that of SM-102 (293T cells [4]; difference vs SM-102): 12%
Cell viability higher than that of YK-501 (293T cells [4]; difference vs YK-501): 31%
Cytotoxicity lower than that of YK-902 (293T cells [4]; difference vs YK-902): 58%
Cell viability higher than that of YK-906 (293T cells [4]; difference vs YK-906): 31%
Cell viability higher than that of compound 7 (293T cells [4]; difference vs compound 7): 21%
PDI [5]: 10.3%
Particle size [5]: 126 nm
